Data on one molecule can be found in patent publication US20130310374A1, “Substituted Imidazoquinoline Derivatives” (PIRAMAL ENTERPRISES LIMITED`, priority 2010, published 2013).

Experiment [1] relates to Human umbilical vein endothelial cells (HUVECs). Put plainly: VEGF induced tube formation assay. It is filed as cell-based. Conditions: HUVECs on Matrigel, compound 75 nM, 18 hours; FIG. 2. The method, then:
Protocol for Tube Formation Assay
Cell Culture: Human umbilical vein endothelial cells (HUVECs) (ATCC) used in passages 2-7. The cells were grown in endothelial medium (Promocell, Germany) supplemented with 20% fetal bovine serum (FBS), 100 units/mL penicillin, 100 μg/mL streptomycin, 3 ng/mL basic fibroblast growth factor, and 5 units/mL heparin at 37° C. under a humidified 95% (v/v) mixture of air and CO2.
Tube Formation Assay: 250 μl of growth factor-reduced Matrigel (BD Biosciences) was pipetted into a 24 well tissue culture plate and polymerized for 30 minutes at 37° C. HUVECs incubated in endothelial media containing 1% FBS for 6 hours were harvested after trypsin treatment and suspended in endothelial media containing 1% FBS. Compounds of present invention (75 nM) were added to the cells for 30 minutes at RT before seeding and plated onto the layer of Matrigel at a density of 2×10^4 cells/well, and followed by the addition of 2 mL of 40 ng/mL VEGF. After 18 hours, the cultures were photographed.
Results: When HUVECs were placed on growth factor-reduced Matrigel in the presence of VEGF, VEGF led to the formation of elongated and robust tube-like structures, which were organized by much larger number of cells compared with the control.

For experiment [2], the system named is human PANC-1 xenograft tumors. Put plainly: Pancreatic cancer xenograft model (tumor growth inhibition in vivo). More on the design: species or system mouse. Conditions: SCID mice, 3 mpk once daily p.o., 14 days; FIG. 3B. The protocol: Animals: Severe combined immunodeficient (SCID) mice (Male and Female) 6 to 8 weeks old, were used. Animals were housed in suitable cages under specified pathogen-free conditions in rooms maintained at 23° C. and 50% humidity, with a 12-hour light/12-hour dark cycle. The mice were quarantined during the acclimatization period of at least a week.
Pancreatic Cancer xenograft model: The human pancreatic carcinoma cells, (PANC-1) (ATCC) were grown in Eagle's Minimum Essential Medium (SAFC, US) supplemented with 10% (v/v) fetal bovine serum. The cells were incubated at 37° C. in a humidified atmosphere containing 5% CO2. […]
Tumor-bearing mice were randomized in two groups when the mean tumor weight was ˜100 mg. […] Twice a week, each xenograft was measured in two dimensions (a=length; b=width) with a caliper. Tumor volume (V) was determined by the following equation:
Tumor volumes were converted into tumor weights assuming a tumor density of 1 mm^3=1 mg. Tumor growth inhibition (TGI) for each group was calculated according to the following formula: […]
Wherein, T and T0 are the mean tumor volumes on a specific experimental day and on day 1 of treatment, respectively, for the experimental groups. […] Animals in each group were observed every day for signs of health deterioration and animal weight was recorded daily. […]

Experiment [3] deals with T1, ALK2 (ACVR1) (Homo sapiens, UniProt Q04771).
T1 construct: recombinant human, catalytic domain of ALK1 (ACVRL1) or ALK2 (ACVR1) kinase GST fusion proteins; GST; purchased Invitrogen, USA
T1 sequence (Q04771 208-502 limits assumed): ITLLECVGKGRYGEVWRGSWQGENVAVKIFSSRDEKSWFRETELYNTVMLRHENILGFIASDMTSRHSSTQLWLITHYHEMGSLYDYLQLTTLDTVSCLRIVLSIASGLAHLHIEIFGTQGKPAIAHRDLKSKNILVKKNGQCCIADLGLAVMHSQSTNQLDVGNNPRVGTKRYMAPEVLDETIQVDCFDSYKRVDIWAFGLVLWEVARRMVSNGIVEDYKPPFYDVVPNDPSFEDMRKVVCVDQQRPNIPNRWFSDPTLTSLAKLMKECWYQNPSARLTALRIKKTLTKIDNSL
Briefly: ALK2 inhibition assay (TR-FRET). In kind it is biochemical. To be noted: 20 μM ATP, read-out: IC50 for ALK-2. The method, then:
(§1) Protocol for ALK1 and ALK2 Inhibition Assay
(§2) The in vitro kinase assays using recombinant human, catalytic domain of ALK1 (ACVRL1) or ALK2 (ACVR1) kinase GST fusion proteins (Invitrogen, USA) were conducted using a time-resolved fluorescence (TR-FRET) format. Kinase reactions were carried out in a 384-well plate format in a final volume of 20 μl. The standard enzyme reaction buffer consisted of 50 mM Tris HCL (pH: 7.4), 1 mM EGTA, 10 mM MgCl2, 2 mM DTT, 0.01% Tween-20, 20 nM of ALK1/ALK2 kinase enzyme (Invitrogen, USA), 50 nM of peptide substrate (DNA Topoisomerase 2 alpha (Thr 1342)U1 peptide, Perkin Elmer, USA) and 20 μM of ATP. Various concentrations of compound of Example 3a in DMSO (final concentration 2%), was added to give a final concentration of the compound ranging from 20 μM to 20 pM. [20 nM of enzyme and compound in various concentrations were pre incubated for 10 minutes at 23° C. followed by the addition of 50 nM of the peptide substrate]. Reaction was initiated with the addition of 20 μM of ATP. After incubation for 1 hour at 23° C., kinase reaction was stopped with the addition of 5 μl EDTA (final concentration of 10 mM in 20 μl). […] The IC50 values for compound of Example 3a were determined by a four-parameter sigmoidal curve fit (Sigma plot or Graph pad).
Background: In TR-FRET formats the signal depends on donor and acceptor labels being close together.

Experiment [4] concerns the target T2, mTOR (Homo sapiens, UniProt P42345).
T2 construct: ProQinase, Germany (contract testing)
Put plainly: mTOR inhibition assay (ProQinase). To be noted: tested at ProQinase, Germany; read-out: IC50, mTOR enzyme activity. In kind it is biochemical. The method, then: The compounds of the present invention were tested at ProQinase, Germany.

Experiment [5] concerns the target T3, ALK1 (ACVRL1) (Homo sapiens, UniProt P37023).
T3 construct: recombinant human, catalytic domain of ALK1 (ACVRL1) or ALK2 (ACVR1) kinase GST fusion proteins; GST; purchased Invitrogen, USA
Put plainly: ALK1 inhibition assay (TR-FRET). It is filed as biochemical. To be noted: 20 μM ATP, read-out: IC50 for ALK-1. The protocol:
as §1, §2

pIC50: −log10 of the molar value.

T3 sequence (P37023 202-492 limits assumed): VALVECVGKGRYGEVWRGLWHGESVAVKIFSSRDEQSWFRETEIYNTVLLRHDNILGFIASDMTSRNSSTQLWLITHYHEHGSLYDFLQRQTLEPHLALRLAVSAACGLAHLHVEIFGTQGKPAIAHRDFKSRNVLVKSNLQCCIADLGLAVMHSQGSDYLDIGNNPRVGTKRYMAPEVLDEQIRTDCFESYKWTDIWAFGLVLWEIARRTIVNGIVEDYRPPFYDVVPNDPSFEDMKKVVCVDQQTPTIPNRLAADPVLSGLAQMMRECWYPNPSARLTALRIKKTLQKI

For orientation: pIC50 means the negative decadic logarithm of the IC50, by convention in mol/L. For the molecule `CS(=O)(=O)O.Cn1c(=O)n(-c2ccc(C(C)(C)C#N)nc2)c2c3cc(-c4cnc(N)c(C(F)(F)F)c4)ccc3ncc21` [Example 3a, 8-(6-Amino-5-(trifluoromethyl)pyridin-3-yl)-1-(6-(2-cyanopropan-2-yl)pyridin-3-yl)-3-methyl-2-oxo-2,3-dihydro-1H-imidazo[4,5-c]quinolin-5-ium methanesulfonate], the “VEGF (40 ng/mL) induced tube formation” value in experiment [1] is “effectively abrogated the width and the length of endothelial tubes induced by VEGF”. Moreover, the “Growth of pancreatic tumors, PANC-1 xenograft” value in experiment [2] is reported as “effectively inhibited the growth of pancreatic tumors”. Further, the pIC50 in experiment [3] was 7.33; in experiment [4] it was 8.36; in experiment [5] it was 7.38.
